# Results as given in article PMC11478212, “Antitumoral and Antiproliferative Potential of Synthetic Derivatives of Scorpion Peptide IsCT1 in an Oral Cavity Squamous Carcinoma Model” (Molecules, 2024).
# How the values were obtained:
# [1] = Resistance to degradation in 25% fetal bovine serum; type: in vitro ADME; settings: 25% fetal bovine serum in water, 37 °C, HPLC peak area vs t = 0 h, triplicate
# Protocol: (§1) Figure 1 (a) Helical wheel projections of the IsCT1, AFPK-IsCT1, KKK-IsCT1, and IsCT-P peptides were generated using the Heliquest server (https://heliquest.ipmc.cnrs.fr/, accessed on 15 July 2024). In these projections, yellow, gray, and green circles represent hydrophobic amino acids, while blue and pink circles denote hydrophilic amino acids. (b) Resistance to degradation assays for all peptides were performed over 6 h in a solution containing 25% fetal bovine serum (FBS). These experiments were conducted in triplicate and aliquots were collected for analysis at 0, 0.5, 1, 2, 4, and 6 h of incubation. The aliquots were subsequently analyzed using high-performance liquid chromatography (HPLC) after each incubation period. The degradation kinetics of the peptides were determined by comparing the integrated peak area associated with the peptide at the start of the experiment (t = 0 h) with the integrated peak area at subsequent time points (t = 0.5, 1, 2, 4, 6 h). (c) The hemolytic activity of synthetic peptides analogous to IsCT1 was assessed on human erythrocytes within a concentration range of 0.13–128 μmol L^−1 in phosphate-buffered saline (PBS) (n = 3). A 1% solution of sodium dodecyl sulfate (SDS) in PBS served as a positive control, while PBS alone was used as a negative control. (d) A table summarizing the sequences, molecular weights, and physicochemical properties of the IsCT1, AFPK-IsCT1, and KKK-IsCT1 peptides. […]
# Stability assays were conducted using GIBCO (Waltham, MA, USA) fetal bovine serum diluted to 25% in water, as described by Torres et al.. Briefly, peptide solutions were added to the serum solution and maintained at 37 °C. The experiments were carried out in triplicate and samples were taken at 0, 0.5, 1, 2, 4, and 6 h post incubation. The degradation kinetics were monitored using liquid chromatography and the percentage of remaining peptides was calculated by integrating the peak area of the peptide.
# human erythrocytes = experiment: Hemolytic activity assay; type: cell-based; settings: 0.13–128 μmol L−1 in PBS, n = 3; 1% SDS positive control, PBS negative control
# Protocol: as §1, with “3).” for “3). A 1% solution of sodium dodecyl sulfate (SDS) in PBS served as a positive control, while PBS alone was used as a negative control. (d) A table summarizing the sequences, molecular weights, and physicochemical properties of the IsCT1, AFPK-IsCT1, and KKK-IsCT1 peptides.”
# Cell survival was assessed using an MTT assay. […] Absorbance was then measured at a wavelength of 540 nm using a microplate reader. […]
# SCC-25 tumor cells [2] = experiment: CFSE-DA proliferation assay (flow cytometry); type: cell-based; settings: 24 h, IsCT-P and AC-AFPK-IsCT1 at IC50, other peptides at 100 µM, mean ± SD of three independent experiments
# Protocol: (§2) Figure 2 Assessment of the cellular proliferative index was conducted using flow cytometry following a 24 h treatment with synthetic analogs of the IsCT1 peptide. The treatments were performed using the IC50 values obtained for the IsCT-P and AC-AFPK-IsCT1 peptides and at a concentration of 100 µM for the other peptides. (a) Representative histograms of the proliferative index were analyzed using WinMDI 5.0 software. Each color in the histogram represents a new cell population. (b) Bar graphs represent the mean ± SD of the proliferative index for SCC-9 tumor cells derived from three independent experiments. (c) Bar graphs display the mean ± SD of the proliferative index for SCC-25 tumor cells based on three independent experiments. (d) Bar graphs represent the mean ± SD of the proliferative index for normal FN1 cells from three independent experiments. (e) Bar graphs illustrate the mean ± SD of the proliferative index for normal J774 cells from three independent experiments. Statistical differences were determined using ANOVA and Tukey–Kramer multiple comparison tests. Significance levels are indicated as * p < 0.05, ** p < 0.01, and *** p < 0.001, with ‘ns’ denoting not significant.
# (§3) Tumor (SSC-9 and SSC-25) and normal cells (FN1 and J-774) were plated in 24-well plates at a density of 10^5 cells/mL for 24 h. The treated and control groups were incubated with the carboxyfluorescein marker (CFSE-DA Thermo Fisher (Waltham, MA, USA), KITC34571). CFSE-DA was diluted in PBS + 0.1% human albumin and added to the cell-containing medium. After 24 h of treatment, the cells were trypsinized, transferred to a conical tube, and centrifuged at 1500 rpm for 5 min. The supernatant was discarded and the pellet was resuspended in 1 mL of 4% paraformaldehyde in PBS for 30 min. The cells were then centrifuged, the supernatant was discarded, and the pellet was resuspended in 200 μL of FACS buffer. Readings were performed on a FACScanto flow cytometer (BD, Franklin Lakes, NJ, USA) with the number of events set to 10,000 events, and histograms were acquired and analyzed using ModFit LT 5.0 software.
# SCC-9 tumor cells [3] = experiment: CFSE-DA proliferation assay (flow cytometry); type: cell-based; settings: 24 h, IsCT-P and AC-AFPK-IsCT1 at IC50, other peptides at 100 µM, mean ± SD of three independent experiments
# Protocol: as §2, §3
# SCC-25 tumor cells [4] = experiment: Mitochondrial potential by confocal microscopy (MitoRed/DAPI); type: cell-based; settings: 24 h, IsCT-P and AC-AFPK-IsCT1 at IC50, others 100 µM, MitoRed, DAPI
# Protocol: (§4) Figure 5 Photomicrographs of tongue squamous cell carcinoma tumor cells (SCC-9 and SCC-25) and macrophages (J774), with mitochondria stained red (MitoRED) and nuclei stained blue (DAPI), analyzed using confocal laser microscopy. The indicated cells were treated at the IC50 values obtained for the IsCT-P and AC-AFPK-IsCT1 peptides and at a concentration of 100 µM for the other peptides for a period of 24 h.
# (§5) For the confocal microscopy ana.lysis, tumor and normal cells were cultured in 24-well plates containing round coverslips with RPMI and Leibovitz medium, respectively, supplemented with 10% FBS and incubated with 5% CO2 at 37 °C for 24 h. Samples from the control and treated groups were subjected to the process of removing the culture medium and washing with RPMI medium. A total of 200 nML^−1 of MitoRed (Sigma-Aldrich, USA) was then added and the cells were incubated for 1 h in the dark at 37 °C. After incubation, the cells were washed with PBS, incubated with MitoRed, and fixed with 4% paraformaldehyde for 30 min. The cells were then washed with PBS and incubated. A total of 10 µL of VECTASHIELD® antifade with DAPI (Vector Laboratories, Burlingame, CA, USA) was used on the slide to promote the sealing and marking of the nucleus. The slides were stored in a closed place until the day of reading. Coverslips were placed on slides for observation under a confocal laser fluorescence microscope (Fluoview™ 300) and images were documented and analyzed.
# SCC-9 tumor cells [5] = experiment: as above; type: cell-based; settings: 24 h, IsCT-P and AC-AFPK-IsCT1 at IC50, others 100 µM, MitoRed, DAPI
# Protocol: as §4, §5
# normal FN1 cells = experiment: CFSE-DA proliferation assay (flow cytometry); type: cell-based, human; settings: 24 h, IsCT-P and AC-AFPK-IsCT1 at IC50, other peptides at 100 µM, mean ± SD of three independent experiments
# Protocol: as §2, with “(e) Bar graphs illustrate the mean ± SD of the proliferative index for normal J774 cells from three independent experiments.” left out, “Significance levels are indicated as * p < 0.05, ** p < 0.01, and *** p < 0.001, with ‘ns’ denoting not significant.” left out
# Tumor (SSC-9 and SSC-25) and normal cells (FN1 and J-774) were plated in 24-well plates at a density of 10^5 cells/mL for 24 h. […] Readings were performed on a FACScanto flow cytometer (BD, Franklin Lakes, NJ, USA) with the number of events set to 10,000 events, and histograms were acquired and analyzed using ModFit LT 5.0 software.
Substance,metabolised at 0.5 h ([1]; 30 min) [%],hemolytic activity (human erythrocytes),decrease in the proliferative index (SCC-25 tumor cells [2]) [%],reduction in the proliferative index (SCC-9 tumor cells [3]) [%],change in mitochondrial electric potential (confocal) (SCC-25 tumor cells [4]),change in mitochondrial electric potential (confocal) (SCC-9 tumor cells [5]),"remaining at 1 h ([1]; 1 h, read-out: peptide remaining intact after 1 h) [%]","remaining at 4 h ([1]; 4 h, read-out: peptide remaining intact after 4 h) [%]",reduction in the proliferative index (normal FN1 cells) [%]
Ac-ALGKFWPKIKSLF-NH2 [AC-AFPK-IsCT1],18,did not show hemolytic activity at high concentrations,40.9 ± 2.5,61.6 ± 1.7,promoted a reduction in the mitochondrial electric potential,promoted a reduction in the mitochondrial electric potential,,,
H-ILKKIWKPIKKLF-NH2 [IsCT-P],,caused the hemolysis,61.1 ± 2.8,61.8 ± 8.7,promoted a reduction in the mitochondrial electric potential,promoted a reduction in the mitochondrial electric potential,70,18,37.6 ± 3.9
